Assay results: US11045562B2, “Radiolabelled mGluR2/3 PET ligands” (Janssen Pharmaceutica NV, priority 2015, dated 2021)

How the values were obtained:
human mGlu2 = target: T1, human mGlu2 (Homo sapiens, UniProt Q14416); assay: [3H]-compound A displacement binding, human mGlu2 HEK293 membranes
T1 construct: expressed in transfected cells; host or cells: HEK293
Method: (§1) For [^3H]-compound A (a NAM compound, selective for mGlu2/3 (˜20 fold selective for 2 over 3) vs other mGluRs) binding, membranes from human mGlu2 and mGlu3 HEK293 cells, and also rat cortical membranes, were used. After thawing, membranes were homogenized using an Ultra Turrax homogenizer and suspended in ice-cold binding buffer containing 50 mM Tris-HCl (pH 7.4), 10 mM MgCl2, 2 mM CaCl2. Displacement studies were done using 6 nM of radioligand, except for human mGlu3 membranes where 25 nM was used. Assay mixtures were incubated for 60 min at RT in a volume of 0.5 ml containing […] or 75 μg membrane protein of human mGlu2, human mGlu3 or rat cortex, respectively. Non-specific binding was estimated in the presence of […] compound B (a NAM with IC50˜10 nM against hmGlu2 and IC50˜200 nM against hmGlu3). Filtration was performed using Whatman GF/C filter sheets pre-soaked in 0.1% PEI and a Brandell harvester 96.
(§2) Filters from filters sheets were punched into vials. After the addition of scintillation liquid, radioactivity on the filters was counted in a Liquid Scintillation Analyzer from Perkin Elmer.
(§3) Radioligand competition binding data were calculated as percentage of total binding measured in the absence of test compound. […] Sigmoid inhibition curves were analyzed using non-linear regression analysis.

human mGlu3 = target: T2, human mGlu3 (Homo sapiens, UniProt Q14832); assay: [3H]-compound A displacement binding, human mGlu3 HEK293 membranes
T2 construct: expressed in transfected cells; host or cells: HEK293
Method: as §1, §2, §3

mGlu2-3 rat cortex = assay: [3H]-compound A displacement binding, rat cortical membranes
Method: as §1, §2, §3

[1] = Ex-vivo biodistribution in Sprague-Dawley rats; settings: for Uptake, Mean 2 min: 2 min after i.v. injection; for Uptake, Mean 2 min / Uptake, Mean 10 min / Uptake, Mean 30 min / Uptake, Mean 60 min: n=3; for Uptake, Mean 10 min: 10 min after i.v. injection; for Uptake, Mean 30 min: 30 min after i.v. injection; for Uptake, Mean 60 min: 60 min after i.v. injection
Method: (§4) Sprague-Dawley rats obtained from Harlan (the Netherlands), were housed in groups of four to six per cage until treatment. They were kept at a constant temperature of 21° C. and at a 12-h light/dark cycle, in which lights were switched on at 8:00 a.m. Animals had unrestricted access to food (Teklad Global 16% Protein Rodent Diet, Harlan, Madison, Wis., USA) and water. All animal experiments were performed in compliance with Belgium laws on animal experimentation and after approval by the local animal ethics committee.
The biodistribution of [^18F]-1 was determined at 2, 10, 30 and 60 min, after injection in Sprague Dawley rats (n=3 per time point. Rats were injected intravenously with 0.7-1.1 MBq via a tail vein and euthanized at the time points indicated above, under isoflurane anesthesia. All tissues were dissected, weighed and counted for radioactivity in a gamma counter.

mGluR2/3 [2] = assay: microPET scanning in SD rats, baseline and compound A pretreatment; format: in vivo
Method: Data were acquired in a 128×128×95 matrix with a pixel width of 0.475 mm and a slice thickness of 0.796 mm. During PET imaging, rats were kept under gas anesthesia (2.5% isoflurane in oxygen at a flow rate of 1 l/min), and their body temperature was maintained between 36.5 and 37° C. using a heating pad. PET data were analyzed using Pmod software version 3.2 (Pmod, Zurich Switzerland).
as §4
The peak uptake in frontal cortex during the baseline scan was observed around 15 min after tracer injection.

mGluR2/3 [3] = assay: microPET imaging in rhesus monkey, baseline and compound A pretreatment; format: in vivo, rhesus monkey (Macaca mulatta); settings: for BPnd: baseline, SRTM, pons reference
Text: Dynamic 120-min μPET scans with [^18F]-1 were acquired with a Focus 220 μPET scanner on a rhesus monkey (8 y-old female Macaca mulatta, 5.8 kg), that was sedated with ketamine (Ketalar®) and xylazine (Rompun®) via intramuscular (i.m.) injection. During scanning the monkey received repeatedly an additional dose of ketamine/xylazine via i.v. injection. O2 saturation in blood, breathing frequency and heartbeat frequency were monitored during the entire experiment. The head of the animal was placed central in the field of view of the μPET scanner. Scans were acquired in list mode and Fourier rebinned in 27 time frames (4×15 s, 4×60 s, 5×180 s, 8×300 s, 6×600 s). Data were reconstructed using a 3D maximum a posteriori (3D-MAP) iterative reconstruction. TACs of the whole brain were generated using VOIs with PMOD software. Radioactivity concentration in the brain is expressed as SUV as a function of time after tracer injection. In addition, non-displaceable binding potential (BPnd) was determined, using kinetic modeling based on the simplified reference tissue model (SRTM) with the pons as reference region (0-60 min). Scans were started immediately after i.v. injection of 185 MBq of [^18F]-1 via the vena saphena of the right leg. For the pre-treatment study, the cold authentic reference compound A was dissolved in a vehicle containing 20% (2-hydroxypropyl)-β-cyclodextrin and 2 equivalents HCl, filtered through a 0.22-μm membrane filter (Millex-GV, Millipore) prior to injection. Pre-treatment was done by i.v. injection of 2.5 mg/kg of cold authentic reference compound A, 30 min prior to injection of 185 MBq of [^18F]-1. μPET images were compared to a baseline scan, acquired in the non-treated monkey. Blood samples were collected during both baseline and pre-treatment scans at 10, 30 and 60 min p.i. via a catheter in the vena saphena of the left leg and plasma was analysed for radio metabolites according to the same procedure as for rats.

T1 sequence (Q14416 19-872): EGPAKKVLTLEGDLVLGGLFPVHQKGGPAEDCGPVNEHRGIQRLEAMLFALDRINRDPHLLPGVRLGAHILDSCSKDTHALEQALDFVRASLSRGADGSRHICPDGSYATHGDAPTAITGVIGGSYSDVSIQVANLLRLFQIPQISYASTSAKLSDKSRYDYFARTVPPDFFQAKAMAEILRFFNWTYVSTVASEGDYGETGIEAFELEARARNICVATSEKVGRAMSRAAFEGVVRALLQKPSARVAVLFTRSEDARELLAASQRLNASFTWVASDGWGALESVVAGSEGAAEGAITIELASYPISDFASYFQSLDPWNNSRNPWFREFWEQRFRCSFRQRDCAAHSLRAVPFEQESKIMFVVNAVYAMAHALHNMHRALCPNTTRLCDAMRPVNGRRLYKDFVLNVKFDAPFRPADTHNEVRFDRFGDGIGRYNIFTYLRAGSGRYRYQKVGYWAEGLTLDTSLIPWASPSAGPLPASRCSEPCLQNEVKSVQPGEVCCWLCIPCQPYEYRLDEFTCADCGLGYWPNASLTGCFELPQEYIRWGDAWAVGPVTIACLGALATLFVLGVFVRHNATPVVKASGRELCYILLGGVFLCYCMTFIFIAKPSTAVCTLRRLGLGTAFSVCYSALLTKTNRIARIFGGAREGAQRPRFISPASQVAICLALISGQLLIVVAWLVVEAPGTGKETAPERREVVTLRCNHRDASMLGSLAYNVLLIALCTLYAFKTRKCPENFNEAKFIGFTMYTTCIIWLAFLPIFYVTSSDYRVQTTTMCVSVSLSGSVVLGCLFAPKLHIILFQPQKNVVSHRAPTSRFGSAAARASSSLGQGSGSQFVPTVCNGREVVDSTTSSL
T2 sequence (Q14832 23-879): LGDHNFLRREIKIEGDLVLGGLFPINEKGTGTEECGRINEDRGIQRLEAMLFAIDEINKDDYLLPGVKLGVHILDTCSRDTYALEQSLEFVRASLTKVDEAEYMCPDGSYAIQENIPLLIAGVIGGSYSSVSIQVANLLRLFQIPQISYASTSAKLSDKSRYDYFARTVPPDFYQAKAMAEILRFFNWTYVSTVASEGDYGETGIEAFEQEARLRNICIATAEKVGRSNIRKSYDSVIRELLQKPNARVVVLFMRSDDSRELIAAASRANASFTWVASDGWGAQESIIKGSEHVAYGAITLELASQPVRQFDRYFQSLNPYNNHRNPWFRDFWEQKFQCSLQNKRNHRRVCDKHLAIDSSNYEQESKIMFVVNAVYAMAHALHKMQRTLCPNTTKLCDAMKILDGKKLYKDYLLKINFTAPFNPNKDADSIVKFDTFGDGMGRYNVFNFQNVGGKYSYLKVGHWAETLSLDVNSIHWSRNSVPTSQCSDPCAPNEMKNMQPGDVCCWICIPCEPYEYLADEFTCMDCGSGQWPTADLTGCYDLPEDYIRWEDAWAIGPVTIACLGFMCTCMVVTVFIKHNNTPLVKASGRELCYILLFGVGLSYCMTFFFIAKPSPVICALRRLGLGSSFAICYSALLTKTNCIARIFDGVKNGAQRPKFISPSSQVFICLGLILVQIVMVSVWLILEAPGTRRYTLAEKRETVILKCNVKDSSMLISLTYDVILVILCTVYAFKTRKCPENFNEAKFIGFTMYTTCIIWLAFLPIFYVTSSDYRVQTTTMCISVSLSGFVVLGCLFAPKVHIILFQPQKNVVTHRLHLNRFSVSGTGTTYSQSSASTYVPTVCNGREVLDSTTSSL

## C[C@H]1CN(c2ccc(C(F)(F)F)c(CF)c2)C(=O)c2c(NC(=O)c3cccnc3N)cnn21 [[^19F]-1]
other
  melting point: 150.62 °C

## C[C@H]1CN(c2ccc(C(F)(F)F)c(C[18F])c2)C(=O)c2c(NC(=O)c3cccnc3N)cnn21 [compound 1]
Human mGlu2
  Eff Curve: 85
Human mGlu2; 6 nM [3H]-compound A
  IC50: 2.88 nM
Human mGlu3
  Eff Curve: 96
Human mGlu3; 25 nM [3H]-compound A
  IC50: 5.01 nM
mGlu2-3 rat cortex
  Eff Curve: 103
mGlu2-3 rat cortex; 6 nM [3H]-compound A
  pIC50: 8.7
[1]; all brain areas except for the pons
  time of highest uptake: around 10 min
[1]; blood
  Uptake, Mean 2 min: 0.72 SUV
  Uptake, Mean 10 min: 0.50 SUV
  Uptake, Mean 30 min: 0.39 SUV
  Uptake, Mean 60 min: 0.28 SUV
[1]; bone
  Uptake, Mean 2 min: 0.61 SUV
  Uptake, Mean 10 min: 0.52 SUV
  Uptake, Mean 30 min: 0.73 SUV
  Uptake, Mean 60 min: 0.67 SUV
[1]; cerebellum
  Uptake, Mean 2 min: 3.42 SUV
  Uptake, Mean 10 min: 3.33 SUV
  Uptake, Mean 30 min: 1.90 SUV
  Uptake, Mean 60 min: 0.72 SUV
[1]; cerebrum + cerebellum
  Uptake, Mean 2 min: 3.19 SUV
  Uptake, Mean 10 min: 3.45 SUV
  Uptake, Mean 30 min: 2.28 SUV
  Uptake, Mean 60 min: 0.85 SUV
[1]; cortex
  Uptake, Mean 2 min: 5.42 SUV
  Uptake, Mean 10 min: 5.98 SUV
  Uptake, Mean 30 min: 3.87 SUV
  Uptake, Mean 60 min: 1.36 SUV
[1]; ex-vivo biodistribution, SD rats
  brain uptake: high
[1]; ex-vivo biodistribution, hinting for some defluorination
  bone uptake over time: went slightly up over time
[1]; followed by a fast washout
  uptake in liver, kidneys, pancreas and heart: high initial uptake
[1]; heart
  Uptake, Mean 2 min: 4.73 SUV
  Uptake, Mean 10 min: 2.16 SUV
  Uptake, Mean 30 min: 1.49 SUV
  Uptake, Mean 60 min: 1.14 SUV
[1]; hippocampus
  Uptake, Mean 2 min: 2.49 SUV
  Uptake, Mean 10 min: 2.83 SUV
  Uptake, Mean 30 min: 1.94 SUV
  Uptake, Mean 60 min: 0.80 SUV
[1]; kidneys
  Uptake, Mean 2 min: 6.59 SUV
  Uptake, Mean 10 min: 2.76 SUV
  Uptake, Mean 30 min: 2.24 SUV
  Uptake, Mean 60 min: 1.87 SUV
[1]; liver
  Uptake, Mean 2 min: 8.81 SUV
  Uptake, Mean 10 min: 5.70 SUV
  Uptake, Mean 30 min: 3.90 SUV
  Uptake, Mean 60 min: 2.42 SUV
[1]; lungs
  Uptake, Mean 2 min: 4.70 SUV
  Uptake, Mean 10 min: 2.27 SUV
  Uptake, Mean 30 min: 2.01 SUV
  Uptake, Mean 60 min: 1.77 SUV
[1]; muscle
  Uptake, Mean 2 min: 0.57 SUV
  Uptake, Mean 10 min: 1.07 SUV
  Uptake, Mean 30 min: 0.87 SUV
  Uptake, Mean 60 min: 0.65 SUV
[1]; pancreas
  Uptake, Mean 2 min: 6.47 SUV
  Uptake, Mean 10 min: 3.07 SUV
  Uptake, Mean 30 min: 2.84 SUV
  Uptake, Mean 60 min: 2.75 SUV
[1]; pons
  time of peak uptake: 2 min
  Uptake, Mean 2 min: 2.65 SUV
  Uptake, Mean 10 min: 2.13 SUV
  Uptake, Mean 30 min: 1.29 SUV
  Uptake, Mean 60 min: 0.56 SUV
[1]; rest of cerebrum
  Uptake, Mean 2 min: 3.24 SUV
  Uptake, Mean 10 min: 3.74 SUV
  Uptake, Mean 30 min: 2.45 SUV
  Uptake, Mean 60 min: 0.91 SUV
[1]; spleen
  Uptake, Mean 2 min: 3.71 SUV
  Uptake, Mean 10 min: 1.64 SUV
  Uptake, Mean 30 min: 1.13 SUV
  Uptake, Mean 60 min: 0.87 SUV
[1]; striatum
  Uptake, Mean 2 min: 3.21 SUV
  Uptake, Mean 10 min: 3.56 SUV
  Uptake, Mean 30 min: 3.03 SUV
  Uptake, Mean 60 min: 1.14 SUV
[1]; whole cerebrum
  Uptake, Mean 2 min: 3.11 SUV
  Uptake, Mean 10 min: 3.43 SUV
  Uptake, Mean 30 min: 2.31 SUV
  Uptake, Mean 60 min: 0.87 SUV
[1]; with a slow washout
  blood uptake: low
mGluR2/3 [2]; frontal cortex, baseline scan
  time of peak uptake after tracer injection: around 15 min
mGluR2/3 [2]; pons uptake in same range as other regions after compound A pretreatment
  mGluR2/3 specificity of brain uptake: good mGluR2/3 specificity
mGluR2/3 [3]; frontal and prefrontal cortices
  BPnd: high
mGluR2/3 [3]; microPET scans, rhesus monkey
  bone uptake: No bone uptake
mGluR2/3 [3]; thalamus
  BPnd: low
mGluR2/3 [3]; whole brain, baseline scan
  brain uptake SUV: ~3 SUV
  time to peak uptake: 3.5 min
